Read-outs that look alike come from different tables or passages of the source.
Columns and labels:
[1] = biological target: human TLR9 (Homo sapiens (Human), UniProt Q9NR96); experiment: TLR9 inhibition reporter assay (HEK-Blue cells, SEAP reporter, ODN2006 stimulation);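 note: compounds tested over 0.05 nM to 50 µM, 22 h incubation, inhibition taken as SEAP signal drop from agonist plus DMSO wells toward a known inhibitor control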
[2] = biological target: human TLR8 (Homo sapiens (Human), UniProt Q9NR97); experiment: TLR8 inhibition reporter assay (HEK-Blue cells, SEAP reporter, R848 stimulation);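 note: compounds tested from 0.05 nM to 50 µM, 22 h at 37 °C, SEAP measured with HEK-Blue Detection, inhibition relative to agonist plus DMSO versus a known inhibitor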
Chain of human TLR8 (Q9NR97 27-1041): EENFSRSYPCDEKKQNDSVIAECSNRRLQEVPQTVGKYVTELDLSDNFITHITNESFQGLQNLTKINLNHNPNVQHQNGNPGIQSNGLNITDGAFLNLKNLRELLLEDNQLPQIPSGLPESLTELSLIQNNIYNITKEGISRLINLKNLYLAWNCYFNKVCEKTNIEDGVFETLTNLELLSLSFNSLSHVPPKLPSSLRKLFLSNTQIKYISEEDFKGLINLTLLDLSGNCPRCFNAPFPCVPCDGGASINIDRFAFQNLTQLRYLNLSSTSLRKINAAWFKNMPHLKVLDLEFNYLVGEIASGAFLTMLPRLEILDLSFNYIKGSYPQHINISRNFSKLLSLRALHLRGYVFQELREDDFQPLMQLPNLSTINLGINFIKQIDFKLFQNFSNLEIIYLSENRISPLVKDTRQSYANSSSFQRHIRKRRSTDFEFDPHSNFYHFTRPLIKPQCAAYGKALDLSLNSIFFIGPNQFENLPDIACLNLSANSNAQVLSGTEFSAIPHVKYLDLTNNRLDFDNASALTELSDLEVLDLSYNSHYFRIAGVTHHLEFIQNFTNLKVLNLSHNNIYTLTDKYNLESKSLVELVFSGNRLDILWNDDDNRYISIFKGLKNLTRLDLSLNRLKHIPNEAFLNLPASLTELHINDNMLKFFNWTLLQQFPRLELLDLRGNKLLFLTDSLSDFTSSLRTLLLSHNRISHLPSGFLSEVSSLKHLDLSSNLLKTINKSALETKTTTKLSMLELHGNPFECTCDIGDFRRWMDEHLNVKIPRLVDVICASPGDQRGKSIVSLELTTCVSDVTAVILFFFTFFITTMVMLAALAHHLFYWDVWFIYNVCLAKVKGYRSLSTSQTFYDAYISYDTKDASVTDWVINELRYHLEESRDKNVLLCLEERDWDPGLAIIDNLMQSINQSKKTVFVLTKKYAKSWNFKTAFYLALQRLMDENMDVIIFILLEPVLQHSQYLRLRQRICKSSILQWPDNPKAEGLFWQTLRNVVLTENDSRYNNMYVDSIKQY

[3] = biological target: human TLR7 (Homo sapiens (Human), UniProt Q9NYK1); experiment: TLR7 inhibition reporter assay (HEK-Blue cells, SEAP reporter, gardiquimod stimulation); type: cell-based; details: HEK-Blue cells overexpressing human TLR7, gardiquimod 7.5 μM
Chain of human TLR7 (Q9NYK1 27-1049): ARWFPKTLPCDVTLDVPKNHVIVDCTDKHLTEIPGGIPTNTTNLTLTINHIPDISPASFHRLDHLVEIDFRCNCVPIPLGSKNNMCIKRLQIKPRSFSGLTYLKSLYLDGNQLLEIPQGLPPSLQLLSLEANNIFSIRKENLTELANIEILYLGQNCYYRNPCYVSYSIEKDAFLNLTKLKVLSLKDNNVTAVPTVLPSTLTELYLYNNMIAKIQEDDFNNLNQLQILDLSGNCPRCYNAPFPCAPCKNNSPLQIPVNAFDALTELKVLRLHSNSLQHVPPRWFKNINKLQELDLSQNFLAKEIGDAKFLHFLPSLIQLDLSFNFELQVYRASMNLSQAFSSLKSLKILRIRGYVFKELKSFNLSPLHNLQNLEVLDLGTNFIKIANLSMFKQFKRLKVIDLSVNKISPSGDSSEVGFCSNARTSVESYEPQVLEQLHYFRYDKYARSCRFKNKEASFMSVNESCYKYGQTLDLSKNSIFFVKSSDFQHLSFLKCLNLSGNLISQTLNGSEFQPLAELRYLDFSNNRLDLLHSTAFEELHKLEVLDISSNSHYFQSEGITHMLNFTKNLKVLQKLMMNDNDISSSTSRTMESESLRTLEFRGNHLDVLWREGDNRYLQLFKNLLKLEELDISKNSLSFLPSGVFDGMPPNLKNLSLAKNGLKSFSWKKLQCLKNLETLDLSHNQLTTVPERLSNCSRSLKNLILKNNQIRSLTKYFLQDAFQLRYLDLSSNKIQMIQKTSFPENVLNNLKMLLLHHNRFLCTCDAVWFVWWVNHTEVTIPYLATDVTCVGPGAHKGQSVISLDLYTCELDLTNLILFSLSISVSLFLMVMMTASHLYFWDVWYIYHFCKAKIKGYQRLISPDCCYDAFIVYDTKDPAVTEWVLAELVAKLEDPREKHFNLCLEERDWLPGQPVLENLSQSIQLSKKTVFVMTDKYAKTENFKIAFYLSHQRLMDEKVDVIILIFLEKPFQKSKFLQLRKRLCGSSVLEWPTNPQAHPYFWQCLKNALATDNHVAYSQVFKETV
Protocol: TLR7/8/9 Inhibition Reporter Assays
Briefly, cells are seeded into Greiner 384 well plates (15000 cells per well for TLR7, 20,000 for TLR8 and 25,000 for TLR9) and then treated with test compounds in DMSO to yield a final dose response concentration range of 0.05 nM-50 μM. […] After a 22 hour incubation at 37° C., 5% CO2, SEAP levels are determined with the addition of HEK-Blue™ Detection reagent (Invivogen), a cell culture medium that allows for detection of SEAP, according to manufacturer's specifications. The percent inhibition is determined as the % reduction in the HEK-Blue signal present in wells treated with agonist plus DMSO alone compared to wells treated with a known inhibitor.

[4] = read-out: TLR9 IC50, HEK-Blue cells overexpressing human TLR9, ODN2006 5 nM
[5] = read-out: TLR8 IC50, HEK-Blue cells overexpressing human TLR8, R848 15.9 μM
[6] = TLR9 IC50, HEK-Blue cells overexpressing human TLR9, ODN2006 5 nM
[7] = TLR8 IC50, HEK-Blue cells overexpressing human TLR8, R848 15.9 μM

Chain of human TLR9 (Q9NR96 26-1032): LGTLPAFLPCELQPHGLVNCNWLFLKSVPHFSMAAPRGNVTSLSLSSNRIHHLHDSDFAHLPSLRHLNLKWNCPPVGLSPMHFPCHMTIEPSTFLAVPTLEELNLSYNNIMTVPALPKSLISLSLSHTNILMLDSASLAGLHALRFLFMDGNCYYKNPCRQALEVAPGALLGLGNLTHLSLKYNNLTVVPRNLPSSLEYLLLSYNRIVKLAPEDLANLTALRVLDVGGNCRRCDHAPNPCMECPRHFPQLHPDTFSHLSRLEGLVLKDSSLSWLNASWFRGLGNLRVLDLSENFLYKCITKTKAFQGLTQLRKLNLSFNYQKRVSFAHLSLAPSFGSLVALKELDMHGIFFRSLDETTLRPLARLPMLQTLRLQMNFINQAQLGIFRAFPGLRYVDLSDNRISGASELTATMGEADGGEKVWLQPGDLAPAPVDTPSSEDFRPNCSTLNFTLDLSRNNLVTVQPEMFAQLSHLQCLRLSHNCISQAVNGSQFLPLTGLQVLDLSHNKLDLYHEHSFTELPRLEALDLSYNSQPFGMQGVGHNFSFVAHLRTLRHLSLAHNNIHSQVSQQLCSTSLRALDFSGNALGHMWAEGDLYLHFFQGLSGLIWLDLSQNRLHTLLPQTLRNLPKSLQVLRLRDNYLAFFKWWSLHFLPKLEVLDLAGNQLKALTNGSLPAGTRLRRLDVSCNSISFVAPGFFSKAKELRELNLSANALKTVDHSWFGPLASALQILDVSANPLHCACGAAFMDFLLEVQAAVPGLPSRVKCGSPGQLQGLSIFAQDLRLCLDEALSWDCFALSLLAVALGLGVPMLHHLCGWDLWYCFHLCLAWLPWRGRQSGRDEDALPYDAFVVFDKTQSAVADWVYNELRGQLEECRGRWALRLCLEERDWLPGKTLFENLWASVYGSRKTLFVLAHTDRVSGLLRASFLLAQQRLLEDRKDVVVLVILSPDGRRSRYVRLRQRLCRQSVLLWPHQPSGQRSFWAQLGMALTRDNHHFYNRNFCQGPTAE

IC50 [1, 4] [nM] | IC50 [2, 5] [nM] | IC50 [3] [nM] | IC50 [1, 6] [nM] | IC50 [2, 7] [nM] | Compound
2210 | 2.7 | 31.4 |  |  | Cc1cc(-c2[nH]c3ccc(C4CCN(C5CCOCC5)CC4)cc3c2C(C)C)c(C)cn1 [Example 714, 2-(2,5-dimethylpyridin-4-yl)-3-isopropyl-5-(1-(tetrahydro-2H-pyran-4-yl)piperidin-4-yl)-1H-indole]
2990 | 4.5 | 3 |  |  | Cc1cc(-c2[nH]c3ccc(C4CCN(C5CCOC5)CC4)cc3c2C(C)C)c(F)cn1 (stereo not drawn) [Example 725, 2-(5-fluoro-2-methylpyridin-4-yl)-3-isopropyl-5-(1-(tetrahydrofuran-3-yl)piperidin-4-yl)-1H-indole]
2560 | 6.3 | 6.3 |  |  | Cc1cc(-c2[nH]c3ccc(C4CCN(Cc5nncn5C)CC4)cc3c2C(C)C)cc(C)n1 [Example 464, 2-(2,6-dimethylpyridin-4-yl)-3-isopropyl-5-(1-((4-methyl-4H-1,2,4-triazol-3-yl)methyl)piperidin-4-yl)-1H-indole]
 |  | 2.7 | 240 | 21 | Cc1cc(-c2[nH]c3ccc(C4CCNCC4O)cc3c2C(C)C)cc(C)n1 (single isomer, unassigned) [Example 488A, 4-(2-(2,6-dimethylpyridin-4-yl)-3-isopropyl-1H-indol-5-yl)piperidin-3-ol]
379 | 33.9 | 12.9 |  |  | Cc1cc(-c2[nH]c3ccc(C4CCN(C(=O)C5CCNCC5)CC4)cc3c2C(C)C)ccn1 [Example 573, (4-(3-isopropyl-2-(2-methylpyridin-4-yl)-1H-indol-5-yl)piperidin-1-yl)(piperidin-4-yl)methanone]
526 | 1.8 | 8.8 |  |  | Cc1cc(-c2[nH]c3ccc(C4CCN(C5CCCNC5)CC4)cc3c2C(C)C)ccn1 (stereo not drawn) [Example 703, 5-([1,3′-bipiperidin]-4-yl)-3-isopropyl-2-(2-methylpyridin-4-yl)-1H-indole]
646 | 8.7 | 5.6 |  |  | Cc1cc(-c2[nH]c3ccc(C4CCN(Cc5ccon5)CC4)cc3c2C(C)C)cc(C)n1 [Example 432, 3-((4-(2-(2,6-dimethylpyridin-4-yl)-3-isopropyl-1H-indol-5-yl)piperidin-1-yl)methyl)isoxazole]
563 | 13.9 | 154 |  |  | COc1cc(-c2[nH]c3ccc(C4CCN(C5CCN(CC6CC6)CC5)CC4)cc3c2C(C)C)ccn1 [Example 796, 5-(1′-(cyclopropylmethyl)-[1,4′-bipiperidin]-4-yl)-3-isopropyl-2-(2-methoxypyridin-4-yl)-1H-indole]
731 | 24.1 | 15.1 |  |  | Cc1cc(-c2[nH]c3ccc(C4CCN(C(=O)[C@@H]5CCC[C@H](N)C5)CC4)cc3c2C(C)C)ccn1 [Example 576, ((1R,3S)-3-aminocyclohexyl)(4-(3-isopropyl-2-(2-methylpyridin-4-yl)-1H-indol-5-yl)piperidin-1-yl)methanone]
42 | 11.9 | 44.7 |  |  | CCc1c(-c2ccnc(C)c2)[nH]c2ccc(C3CCN(CC4CCN(C(C)C)CC4)CC3)cc12 [Example 675, 3-ethyl-5-(1-((1-isopropylpiperidin-4-yl)methyl)piperidin-4-yl)-2-(2-methylpyridin-4-yl)-1H-indole]
2010 | 47.9 | 23.6 |  |  | CC(C)c1c(-c2ccnc(F)c2)[nH]c2ccc(C3CCN(C(=O)CN(C)C)CC3)cc12 [Example 522, 2-(dimethylamino)-1-(4-(2-(2-fluoropyridin-4-yl)-3-isopropyl-1H-indol-5-yl)piperidin-1-yl)ethan-1-one]
15400 | 241 | 251 |  |  | CCc1c(-c2ccnc(C)c2)[nH]c2ccc(C3CCN(C(=O)c4ccncc4)CC3)cc12 [Example 591, (4-(3-ethyl-2-(2-methylpyridin-4-yl)-1H-indol-5-yl)piperidin-1-yl)(pyridin-4-yl)methanone]
655 | 257 | 1520 |  |  | CCc1c(-c2ccnc(F)c2)[nH]c2ccc(C3CCN(C4CCN(CC(C)C)CC4)CC3)cc12 [Example 759, 3-ethyl-2-(2-fluoropyridin-4-yl)-5-(1′-isobutyl-[1,4′-bipiperidin]-4-yl)-1H-indole]
1150 | 18.9 | 16.5 |  |  | Cc1cc(-c2[nH]c3ccc(C4CCN(C(=O)C5CCN(C(C)C)CC5)CC4)cc3c2C(C)C)ccn1 [Example 563, (4-(3-isopropyl-2-(2-methylpyridin-4-yl)-1H-indol-5-yl)piperidin-1-yl)(1-isopropylpiperidin-4-yl)methanone]

Second part, the compound before the results:

Compound | IC50 [1, 4] [nM] | IC50 [2, 5] [nM] | IC50 [3] [nM] | IC50 [1, 6] [nM] | IC50 [2, 7] [nM]
Cc1cc(-c2[nH]c3ccc(C4CCN(C(=O)CN5CC(=O)NC5=O)CC4)cc3c2C(C)C)cc(C)n1 [Example 151, 1-(2-(4-(2-(2,6-dimethylpyridin-4-yl)-3-isopropyl-1H-indol-5-yl)piperidin-1-yl)-2-oxoethyl)imidazolidine-2,4-dione] | 46700 | 83.8 | 15 |  | 
Cc1cc(-c2[nH]c3ccc(C4CCN(CC(=O)N5CCCC(F)(F)C5)CC4)cc3c2C(C)C)cc(C)n1 [Example 285, 1-(3,3-difluoropiperidin-1-yl)-2-(4-(2-(2,6-dimethylpyridin-4-yl)-3-isopropyl-1H-indol-5-yl)piperidin-1-yl)ethan-1-one] | 423 | 13.9 | 4 |  | 
Cc1cc(-c2[nH]c3ccc(C4CCNCC4)cc3c2C(C)C)cc(C)[n+]1[O-] [Example 56, 2-(2,6-dimethyl-1-(l1-oxidanyl)-1l4-pyridin-4-yl)-3-isopropyl-5-(piperidin-4-yl)-1H-indole] | 804 | 23.9 | 4.6 |  | 
CCN(CC)C(=O)CN1CCC(c2ccc3[nH]c(-c4cc(C)nc(C)c4)c(C(C)C)c3c2)CC1 [Example 228, 2-(4-(2-(2,6-dimethylpyridin-4-yl)-3-isopropyl-1H-indol-5-yl)piperidin-1-yl)-N,N-diethylacetamide] | 1110 | 28.2 | 11.5 |  | 
Cc1cc(-c2[nH]c3ccc(C4CCN(C(=O)C5CCOCC5)CC4)cc3c2C(C)C)cc(C)n1 [Example 198, (4-(2-(2,6-dimethylpyridin-4-yl)-3-isopropyl-1H-indol-5-yl)piperidin-1-yl)(tetrahydro-2H-pyran-4-yl)methanone] | 30800 | 104 | 8.9 |  | 
Cc1cc(-c2[nH]c3ccc(C4CCN(C(=O)CNCCO)CC4)cc3c2C(C)C)cc(C)n1 [Example 336, 1-(4-(2-(2,6-dimethylpyridin-4-yl)-3-isopropyl-1H-indol-5-yl)piperidin-1-yl)-2-((2-hydroxyethyl)amino)ethan-1-one] | 272 | 9.7 | 1.5 |  | 
Cc1cc(-c2[nH]c3ccc(C4CCN(CC(=O)NCCC(C)(C)C)CC4)cc3c2C(C)C)cc(C)n1 [Example 236, N-(3,3-dimethylbutyl)-2-(4-(2-(2,6-dimethylpyridin-4-yl)-3-isopropyl-1H-indol-5-yl)piperidin-1-yl)acetamide] | 2090 | 67.2 | 46.5 |  | 
Cc1cc(-c2[nH]c3ccc(C4CCN(C(=O)CN5CCN(CCO)CC5)CC4)cc3c2C(C)C)cc(C)n1 [Example 171, 1-(4-(2-(2,6-dimethylpyridin-4-yl)-3-isopropyl-1H-indol-5-yl)piperidin-1-yl)-2-(4-(2-hydroxyethyl)piperazin-1-yl)ethan-1-one] | 542 | 18.3 | 2.6 |  | 
Cc1cc(-c2[nH]c3ccc(C4CCN(C(=O)CN(C)CCCO)CC4)cc3c2C(C)C)cc(C)n1 [Example 411, 1-(4-(2-(2,6-dimethylpyridin-4-yl)-3-isopropyl-1H-indol-5-yl)piperidin-1-yl)-2-((3-hydroxypropyl)(methyl)amino)ethan-1-one] | 1230 | 24 | 2.9 |  | 
Cc1cc(-c2[nH]c3ccc(C4CCN(C(=O)CN5CCNC(=O)C5)CC4)cc3c2C(C)C)cc(C)n1 [Example 379, 4-(2-(4-(2-(2,6-dimethylpyridin-4-yl)-3-isopropyl-1H-indol-5-yl)piperidin-1-yl)-2-oxoethyl) piperazin-2-one] | 3920 | 55.2 | 7.7 |  | 
Cc1cc(-c2[nH]c3ccc(C4CCN(C(=O)CN(C)C5CCOC5)CC4)cc3c2C(C)C)cc(C)n1 (stereo not drawn) [Example 413, 1-(4-(2-(2,6-dimethylpyridin-4-yl)-3-isopropyl-1H-indol-5-yl)piperidin-1-yl)-2-(methyl(tetrahydrofuran-3-yl)amino)ethan-1-one] | 2500 | 91.8 | 9.6 |  | 
Cc1cc(-c2[nH]c3ccc(C4CCN(C(=O)CNCC(C)(C)O)CC4)cc3c2C(C)C)cc(C)n1 [Example 375, 1-(4-(2-(2,6-dimethylpyridin-4-yl)-3-isopropyl-1H-indol-5-yl)piperidin-1-yl)-2-((2-hydroxy-2-methylpropyl)amino)ethan-1-one] | 1780 | 80.6 | 13.1 |  | 
Cc1nccc(-c2[nH]c3ccc(C4CCNCC4)cc3c2C(C)C)c1C [Example 30, 2-(2,3-dimethylpyridin-4-yl)-3-isopropyl-5-(piperidin-4-yl)-1H-indole] | 708 | 22.3 | 28.5 |  | 
Cc1cc(-c2[nH]c3ccc(C4CCN(C(=O)C5CCNC5)CC4)cc3c2C(C)C)cc(C)n1 (single isomer, unassigned) [Example 181, (4-(2-(2,6-dimethylpyridin-4-yl)-3-isopropyl-1H-indol-5-yl)piperidin-1-yl)(pyrrolidin-3-yl) methanone] |  |  | 2.6 | 537 | 21.5
